No end group written: not given here.
Assays:
[1] = test system: synovial membrane-derived mesenchymal stem cells; assay: Chondrogenic differentiation, extracellular matrix deposition by alcian blue staining; assay type: cell-based
Source text: Influence of TDFRP compounds (SEQ ID NO 16, 33, 45, 217, 221) on chondrogenic differentiation of synovial membrane-derived mesenchymal stem cells leading to increased extracellular matrix deposition as determined by alcian blue staining. TDFRP compounds, SEQ ID NO:16, 33, 45, 217, and 221 correspond to Compounds E, A, C, B, and D, respectively.
TDFRP compounds can be used to in the prophylaxis or treatment of diseases of the oral cavity, e.g., by affecting direct capping of bioactive molecules, or inducing the formation of reparative dentin and coronal or radicular pulp mineralization (Goldberg et al., Am J. Dent. 2003 February; 16(1):66-76). Further, TDFRP can be used in the prophylaxis or treatment of periodontal disease. […] TDFRP compounds can be used in the prophylaxis or treatment of traumatic brain injury, e.g., stroke, see, e.g., Cairns and Finkelstein, Phys Med Rehabil Clin N Am. 2003 February; 14(1 Suppl):S135-42). Intravenous administration of BMP-7 after ischemia improves motor function in stroke rats (Chang et al., Stroke. 2003 February; 34(2):558-64) and the TDFRP compounds may protect against or repair reperfusion injury. […] Thrasos compounds that bind to ALK3, a type I receptor for BMP, are therefore analyzed to examine if they induce chondrogenic differentiation leading to extra cellular matrix deposition in synovial membrane-derived mesenchymal stem cells. […]

[2] = test system: vascular endothelial cells; assay: Smad 1, 5 phosphorylation in vascular endothelial cells (Western blot); assay type: cell-based; settings: added to vascular endothelial cells in culture
Procedure: (§1) Phosphorylation and nuclear translocation of Smads occurs following the activation of Type I and Type II receptors and subsequent signal transduction to intracellular Smad targets. Phosphorylation and nuclear translocation of R-Smad in HK-2, vascular endothelial, human prostate or other cells by TDFRP compounds is assayed by immuno-fluorescent microscopy methods, using anti-phospho Smad 1/5 antibodies according to the procedure of H Aoki, M Fujii, T Imamura, K Yagi, K Takehara, M Kato and K Miyazono. J. of Cell Sci. 114, 1483-1489, 2001) and by Western blot analysis (FIGS. 2, 3, 18, 2X).
The detection of Smad phosphorylation by Western analysis, for example in LNCaP (prostate cancer cells) or EC (vascular endothelial cells) in culture medium can be examined after exposure to varying concentrations of TDFRP or control compounds. BMP-7 serves as a positive control. Cells are lysed in RIPA lysis buffer (50 mM Tris-HCl at pH 8.0, 150 mM NaCl, 1% NP-40, 0.5% sodium deoxycholate, 0.1% SDS) containing 1 mM PMSF, 1 mM sodium orthovanadate, and 10 ug/mL proteinase inhibitor cocktail. Lysates are incubated on ice for 15 minutes, centrifuged, and transferred supernatant to a clean tube. 50 to 100 ug is used for analysis by SDS-PAGE. Resolved proteins are electro transferred onto PVDF membrane. The blot is blocked by incubating in 3% non-fat dry milk prepared in PBS at room temperature for 1 hour with constant slow agitation. The blot is incubated with 1-2 ug/mL of primary antibody (rabbit anti-phospho-Smad 1) prepared in PBS-milk, overnight with agitation at 4 degree C., washed twice with PBS, and incubated with secondary antibody (anti rabbit HRP conjugated IgG, 1:3000 dilution) at room temperature for 2 hours with agitation. After washing in PBS-0.05% Tween 20 for 5 minutes and rinsing, Smad phosphorylation is detected via an HRP reaction according to manufacturer's instructions (FIGS. 2, 3, 18, 2X).
as §1, with “HK-2” for “HK-2, vascular endothelial, human prostate or other”, “analysis in various cell types” for “analysis”, “27).” for “2X).”
For detection of Smad phosphorylation by Western analysis, LNCaP (prostate cancer cells) or EC (vascular endothelial cells) in culture medium are exposed to varying concentrations of TDFRP or control compounds. BMP-7 served as a positive control. Cells are lysed in RIPA lysis buffer (50 mM Tris-HCl at pH 8.0, 150 mM NaCl, 1% NP-40, 0.5% sodium deoxycholate, 0.1% SDS) containing 1 mM PMSF, 1 mM sodium orthovanadate, and 10 ug/mL proteinase inhibitor cocktail. Lysates are incubated on ice for 15 minutes, centrifuged, and transferred supernatant to a clean tube. 50 to 100 ug is used for analysis by
SDS-PAGE. Resolved proteins are electro transferred onto PVDF membrane. The blot is blocked by incubating in 3% non-fat dry milk prepared in PBS at room temperature for 1 hour with constant slow agitation. The blot is incubated with 1-2 ug/mL of primary antibody (rabbit anti-phospho-Smad 1) prepared in PBS-milk, overnight with agitation at 4 degree C., washed twice with PBS, and incubated with secondary antibody (anti rabbit HRP conjugated IgG, 1:3000 dilution) at room temperature for 2 hours with agitation. After washing in PBS-0.05% Tween 20 for 5 minutes and rinsing, Smad phosphorylation is detected via an HRP reaction according to manufacturer's instructions (FIGS. 3, 27).

[3] = test system: rat osteosarcoma (17/2.8) cells; assay: Rat osteosarcoma (ROS) cell-based alkaline phosphatase assay; settings: 0.02-200 uM, 2 days, relative to BMP-7 standard
Procedure: BMP interactions with Type I and Type II receptors can induce alkaline phosphatase activity, a marker for osteoblast activity, in ROS cells. An assay procedure as described in Maliakal, J. C., Asahina, I., Hauschka, P. V., and Sampath, T. K. (1994) Growth factors 11, 227-234, was used to determine the biological activities of TDFRP compounds. In a typical experiment, rat osteosarcoma (17/2.8) cells are plated in 96 well plates (3.0×10^4 cells/well) and incubated overnight at 37 C in 5-6% CO2 incubator. The next day, healthy and confluent cells are treated with increasing concentrations of BMP-7 standard (1-10,000 ng/ml) served as positive control or TDFRP compounds (0.02-200 uM) prepared in medium containing 1% FBS and incubated for 2 days at 37 C in 5-6% CO2 incubator. The cellular content of alkaline phosphatase activity is determined by the method of Reddi and Huggins (Reddi, A. H., and Huggins, C. B (1972) Proc. Natl. Acad. Sci. USA 69, 1601-1605). Enzyme estimations are performed in 96 well plates. Following removal of culture medium, cells are washed with pre-warmed PBS (150 ul) and incubated in 100 ul of pre-warmed 1% Triton X-100 for 30 minutes at 37 C. Plates are centrifuged for 10 minutes at full speed, and recovered samples (15 ul) are assayed for enzyme activity by adding 90 ul p-nitrophenyl phosphate (Sigma) as a substrate in 0.05 M glycine-NaOH buffer, pH 9.3 and incubating for 20 minutes at 37 C. The reaction is stopped by adding 75 ul of 0.2 N NaOH/well and absorbance at 405/490 nm is measured on a Dynatech MR 700 plate reader. Results are expressed as relative activities compared to a BMP-7 standard.
BMP interactions with Type I and Type II receptors can induce alkaline phosphatase activity, a marker for osteoblast activity, in ROS cells. An assay procedure as described earlier (Maliakal, J. C., Asahina, I., Hauschka, P. V., and Sampath, T. K. (1994) Growth factors 11, 227-234) was used to determine the biological activities of TDFRP compounds. In a typical experiment, rat osteosarcoma (17/2.8) cells are plated in 96 well plates (3.0×10^4 cells/well) and incubated overnight at 37° C. in 5-6% CO2 incubator. […] The cellular content of alkaline phosphatase activity is determined by the method of Reddi and Huggins (Reddi, A. H., and Huggins, C. B (1972) Proc. Natl. Acad. Sci. USA 69, 1601-1605). […] The reaction is stopped by adding 75 ul of 0.2 N NaOH/well and absorbance at 405/490 nm is measured on a Dynatech MR 700 plate reader. Results are expressed as relative activities compared to a BMP-7 standard.

| Substance | deposition of the extracellular matrix [1] | phosphorylation and activation of intracellular Smad 1, 5 [2] | induction of alkaline phosphatase activity [3] |
| --- | --- | --- | --- |
| CIVNSSDDFLCKKYRS [SEQ ID NO:16] | significantly increased | phosphorylation and activation of intracellular Smad 1, 5 | – |
| CYFDDSSNVLCKKYRS-NH2 (not fully specified (bridges); printed as CYFDDSSNVLCKKYRS-NH2; cysteine pairing not given here) [SEQ ID NO:33] | – | phosphorylation and activation of intracellular Smad 1, 5 | – |
| CYFDDSSKVICKKYRS [SEQ ID NO:130] | – | – | did not induce |
| CYFNDSSNCLLKKYRS [SEQ ID NO:229] | – | phosphorylation and activation of intracellular Smad 1, 5 | – |
| CYFDDSSSVLCKKYRS [SEQ ID NO:209] | – | phosphorylation and activation of intracellular Smad 1, 5 | – |
| CYFDDSSNVICKRYRS [SEQ ID NO:24] | – | phosphorylation and activation of intracellular Smad 1, 5 | – |
| CYFNDSSQVLCKRYRS [SEQ ID NO:221] | significantly increased | – | did not induce |
| CYFDDSSQVLCKKYRS [SEQ ID NO:65] | – | – | did not induce |
| CYFDDSSQVICKKYRS [SEQ ID NO:43] | – | phosphorylation and activation of intracellular Smad 1, 5 | – |

Source: patent US8911953B2, “TDF-related compounds and analogs thereof, analogs and bioactive fragments” (Thrasos Innovation, Inc., priority 2005, dated 2014)
